The values that follow come from patent US6949553B2, “Aliphatic compounds, their synthesis method, and utilization of the same” (Maruha Corporation, priority 2001, dated 2005).

Test [1] deals with platelets. Kind of test: In vitro platelet aggregation by various inducers, guinea pig platelets. It counts as cell-based. The settings on record: Cavia porcellus. An excerpt:
(§1) Next, the suppression of platelet aggregation by the compounds of the present invention was studied in the same manner as described above with the use of not only collagen, but also arachidonic acid, ADP, thrombin, serotonin, epinephrine and U46619 (pseudo-thromboxane A2 substance) as inducers.
(§2) As platelets, platelets prepared from rats and guinea pigs as well as rabbits were also used.
(§3) Collagen and ADP were purchased from MCM, and used in accordance with the method of preparation described in the manuals attached to the purchased products. Serotonin, epinephrine and thrombin were purchased from Sigma, and used as solutions in physiological saline for injection (Otsuka Pharmaceutical Factory). Arachidonic acid was purchased from Cayman, and dispersed in physiological saline for injection (Otsuka Pharmaceutical Factory) with the use of an immersion type ultrasonic oscillator (US150, NIPPON SEIKI, tip end diameter ca. 3.5 mm). U46619 (pseudo-thromboxane substance) was purchased from FUNAKOSHI, and dissolved in physiological saline for injection (Otsuka Pharmaceutical Factory) when used.
(§4) Collagen (0.1 to 1 μg/ml), arachidonic acid (1 mM), ADP (1 μM), thrombin (1 U/ml), serotonin (100 μM), epinephrine (100 to 200 μM), and U46619 (3 μM) were used.
(§5) Indomethacin was used as a positive control for measuring the suppression of platelet aggregation induced by collagen.

Test [2] deals with platelets. Put plainly: Ex vivo platelet aggregation after intravenous administration. Format: in vivo, rat. How it is done: The blood was withdrawn at three points in time, 10 minutes, 30 minutes and 1 hour after administration. Platelets were prepared from the blood samples taken, and they were used to study the aggregation rates when platelet aggregation was induced by 0.3 to 6 μg/ml of collagen. In a control group, the aggregation rates after administration of a solvent (physiological saline) were measured.
It was studied whether the compound of the present invention would suppress ex vivo platelet aggregation dose-dependently.
The blood was withdrawn 60 minutes after administration, and platelets were prepared from the blood. Platelet aggregation was induced by 4 to 7 μg/ml of collagen using the platelets.
The blood was withdrawn 1 hour after intravenous administration, and platelets were prepared from the blood. Platelet aggregation was induced by 1 to 6 μg/ml of collagen using the platelets.

Test [3] concerns rat middle cerebral artery obstruction. Put plainly: Photosensitization-induced rat middle cerebral artery obstruction model. It counts as in vivo. The settings on record: 1 mg/kg intravenous after laser irradiation, evaluated 24 hours after. On the procedure: A photosensitization-induced rat middle cerebral artery obstruction model, widely used as a cerebral infarction acute phase/chronic phase model, was used to investigate the effect of the compounds of the present invention on an in vivo circulatory disorder pathophysiological model.
After rats were intravenously injected with a rose bengal dye (20 mg/kg), the middle cerebral artery was irradiated with green laser light (wavelength 540 nm) for 10 minutes to induce arterial infarction due to active oxygen species. After completion of irradiation with laser light, Compound 2 was intravenously administered.
A solvent (physiological saline) was intravenously administered as a control.
The progress of cerebral infarction was observed 24 hours after laser light irradiation. A transverse section (1 mm in thickness) of the brain exenterated was prepared, and soaked in triphenyltetrazolium to stain living tissue red. An infarct was white, and was clearly distinguished from the living tissue. Thus, the area of the infarct was measured, and the infarct rate (the proportion of the area of the infarct to the transverse section of the brain) was calculated for use in evaluation.

Test [4] concerns platelets. Kind of test: In vitro platelet aggregation by various inducers, rabbit platelets. It counts as cell-based. The note with it: for IC50: Oryctolagus cuniculus, Platelet, rabbit platelets, read-out: 50% inhibition point, IC50, for in vitro platelet aggregation.
Source text: as §1, §2, §3, §4, §5

Test [5] deals with vascular smooth muscle cells. Put plainly: Synthetic type vascular smooth muscle cell proliferation (PDGF, BrdU assay). It counts as cell-based, rat. The settings on record: 0.3 to 3 μM with PDGF 50 ng/ml, 24 hours. On the procedure: The effect of the study substance on vascular smooth muscle cell proliferation was studied.
Thus, the effect of Compound 2 on the cell proliferation of vascular smooth muscle cells was measured in the following manner:
The rat carotid arterial tunica intima was rubbed by ballooning, and vascular smooth muscle cells were prepared by explant culture. Two weeks later, these cells were cultured in a DMEM culture medium (Gibco) containing 10% fetal bovine serum. The cultures were subcultured several times for stabilization, and then planted at a cell density of 5×10^3 cells/cm^2 for use in experiments. Compound 2 in combination with 50 ng/ml of the growth factor PDGF (Sigma) was added to the above planted cells and, 24 hours later, the cell density was measured by BrdU assay (Science '82, 218, p. 474, Cytometry '85, 6, p. 584). The cell density in the absence of the drug was measured as a control.
Relative smooth muscle cell count (%)=[cell count in the experimental group]/[cell count in the control]×100.
In general terms: Dividing cells build labelled thymidine or BrdU into new DNA.

Test [6] concerns platelets. Kind of test: Collagen-induced in vitro platelet aggregation (rabbit PRP, transmittance). Format: cell-based. The settings on record: Oryctolagus cuniculus, Platelet, read-out: 50% Inhibition Point for Platelet Aggregation, IC50. On the procedure:
Collagen-induced in vitro Platelet Aggregation
It was studied whether the compounds of the present invention would inhibit platelet aggregation induced by collagen.
These compounds were each diluted with physiological saline to end concentrations of 1×10^−7M, 3×10^−7M, 1×10^−6M, 3×10^−6M, 1×10^−5M, 3×10^−5M and 1×10^−4M.
Indomethacin was used as a positive control. Indomethacin was dissolved in methanol, and then diluted with physiological saline to end concentrations of 1×10^−6M, 3×10^−6M and 1×10^−5M.
Physiological saline was used as a negative control.
The tube was centrifuged at 900 rpm for 10 minutes at room temperature to separate the supernatant (PRP, platelet rich plasma fraction). The residue was further centrifuged for 15 minutes at 2,500 rpm to obtain the supernatant (PPP, platelet poor plasma fraction).
PPP (platelet poor plasma fraction) was placed in a cuvette, and the cuvette was mounted in a 37° C. incubator for PPP of an aggregometer (Hematracer 240 12ch, manufactured by MCM). Then, 200 μl of PRP (platelet rich plasma fraction) was added into a cuvette, and the cuvette was mounted in a reactor for PRP. With stirring by a magnetic stirrer, the transmittance of PPP was corrected to T650 nm=100%, and the transmittance of PRP was corrected to T650 nm=0%, by automatic adjustment for 30 seconds.
The study substance (20 μl) at a predetermined concentration was added into the cuvette and, 30 seconds later, 20 μl (end concentration 0.2 μg/ml) of collagen (produced by MCM) was added. Subsequent changes in the transmittance were recorded for 5 minutes. When the platelets are aggregated, the transmittance increases. When aggregation peaked, the transmittance T at maximum aggregation was compared with the transmittance T0 of the negative control, and the aggregation inhibition rate was expressed as percentage using the following equation: Aggregation inhibition rate=(1−T/T0)×100
From an aggregation inhibition curve obtained, a regression equation was derived by approximation of the linear type.

“And” between values parts separate entries of the source, which are not always exact repeats. Equal entries are not always repeated.

In the case of `CC/C=C\C/C=C\C/C=C\C/C=C\C/C=C\C/C=C\CCC(=O)NCCC1CCCN1C` (racemic) [Compound 2, (4Z,7Z,10Z,13Z,16Z,19Z)-N-[2-(1-methylpyrrolidin-2-yl)ethyl]docosahexaenoamide], the IC50 in test [1] (read-out: 50% aggregation inhibition point, collagen-induced aggregation, guinea pig platelets) is ~9 µM; in test [1] (read-out: 50% inhibition point, IC50, for in vitro platelet aggregation, inducer ADP (1 μM), guinea pig platelets), 65 ± 19 µM; in test [1] (read-out: 50% inhibition point, IC50, for in vitro platelet aggregation, inducer collagen (0.1 to 1 μg/ml), guinea pig platelets), 9 ± 6 µM; in test [1] (read-out: 50% inhibition point, IC50, for in vitro platelet aggregation, inducer thrombin (1 U/ml), guinea pig platelets), > 100 µM; in test [4] (inducer ADP (1 μM)), > 100 µM; in test [4] (inducer U46619 (3 μM)), 50 ± 10 µM. Further, the IC50 was > 100 µM in test [4] (inducer arachidonic acid (1 mM)), 2.1 ± 0.8 µM in test [4] (inducer collagen (0.1 to 1 μg/ml)) and 1.5 µM in test [6]. In addition, the “ex vivo IC50 blood concentration as fraction of in vitro IC50” value in test [2] (26 nM versus 2.1±0.8 μM in vitro) was “about 1/80”. The “ex vivo platelet aggregation (in words)” value was “suppressed compared with the solvent-treated group, although the suppressive action was weak” in test [2] (0.0001 mg/kg rat caudal vein, 60 minutes, collagen 4 μg/ml) and “platelet aggregation was suppressed in comparison with the solvent-treated group” in test [2] (1, 0.1, 0.01 or 0.001 mg/kg rat caudal vein, blood 60 minutes after administration, collagen 4 to 7 μg/ml). For the same compound, the “ex vivo platelet aggregation, onset of efficacy (in words)” value in test [2] (10 mg/kg caudal vein, male SD rats, blood 10 minutes, 30 minutes and 1 hour after administration, collagen 0.3 to 6 μg/ml) is recorded as “platelet aggregation was suppressed in comparison with the solvent group”. For the same compound, in test [2] (FIG. 3, 0.0001 to 1 mg/kg rat caudal vein, 60 minutes), the “ex vivo platelet aggregation, dose-dependency (in words)” value was “suppressing platelet aggregation ex vivo dose-dependently”. Besides, the estimated blood concentration at the ex vivo IC50 dose in test [2] (Platelet, iv, 630 ng/kg, rat blood estimated at about 60 ml/kg, read-out: presumed blood concentration at the ex vivo IC50 dose) is 0.026 µM. In addition, in test [2] (rat, intravenous), the “IC50 for suppression of ex vivo platelet aggregation relative to conventional GPIIb/IIIa receptor antagonists” value is given as “about 1,000 times”. Also, the “50% suppression point, IC50, ex vivo platelet aggregation” value in test [2] (rat, intravenous, 60 minutes after administration, collagen 4 μg/ml) is 630 ± 36 ng/kg and 630 ng/kg. The “cerebral infarction, infarct rate (in words)” value in test [3] is reported as “ameliorate cerebral infarction”. Moreover, the “inhibition of platelet aggregation induced by arachidonic acid, ADP and thrombin (in words)” value in test [4] (platelets from the rabbit, the rat or the guinea pig) is “either did not inhibit platelet aggregation, or even when it inhibited platelet aggregation, its degree of inhibition was very low”. Further, the “vascular smooth muscle cell proliferation (in words)” value in test [5] was “suppress vascular smooth muscle cell proliferation concentration-dependently”.
